Results reported in patent US8916526B2, “Flavanone derivative” (National University Corporation Okayama University, priority 2009, dated 2014).
In brackets after ≈: the same amount, converted by molar mass.

Key:
[1] = system: Methicillin-resistant S. aureus OM584; test: In vitro infectivity assay (MIC), Exp. Ex. 2-1; format: cell-based, Staphylococcus aureus; details: Staphylococcus aureus, MRSA; Gram-positive; microdilution, MIC after 24 h; read-out: MIC MRSA OM584
Procedure, shortened: (§1)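 CLSI broth dilution; Mueller-Hinton + 0.85% NaCl; inoculum ~10^5 CUF/[…]; 35° C, 24 h; MIC read, n=3.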

[2] = system: Methicillin-resistant S. aureus COL; test: In vitro infectivity assay (MIC), Exp. Ex. 2-1; format: cell-based, Staphylococcus aureus; details: Staphylococcus aureus, MRSA; Gram-positive; microdilution, MIC after 24 h
[3] = system: Methicillin sensitive S. aureus 209P; test: In vitro infectivity assay (MIC), Exp. Ex. 2-1; format: cell-based, Staphylococcus aureus; details: Staphylococcus aureus, 209P / MSSA; Gram-positive; microdilution, MIC after 24 h; read-out: MIC MSSA 209P
Procedure, shortened: as §1

[4] = system: Methicillin-resistant S. aureus OM481; test: In vitro infectivity assay (MIC), Exp. Ex. 2-1; format: cell-based, Staphylococcus aureus; details: Staphylococcus aureus, MRSA; Gram-positive; microdilution, MIC after 24 h; read-out: MIC MRSA OM481
Procedure, shortened: as §1

[5] = system: Methicillin-resistant S. aureus N315; test: In vitro infectivity assay (MIC), Exp. Ex. 2-1; format: cell-based, Staphylococcus aureus; details: Staphylococcus aureus, MRSA; Gram-positive; microdilution, MIC after 24 h; read-out: MIC MRSA N315
Procedure, shortened: as §1

E. coli DNA gyrase = target: T1, E. coli DNA gyrase (Escherichia coli, UniProt P0AES4+P0AES6); test: DNA gyrase inhibition (supercoiling kit), Exp. Ex. 2-2; format: biochemical
T1 construct: purchased John Innes Enterprises #K0001
Procedure, shortened: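 Supercoiling of relaxed pBR322 DNA ([…]) by 1 U E. coli gyrase, 37° C for 30 minutes, in 35 mM Tris-HCl pH 7.5 with 1 mM ATP, 4 mM MgCl2, 24 mM KCl, spermidine and DTT. Products resolved by electrophoresis to derive IC50.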

[6] = target: T2, Escherichia coli Topoisomerase IV (Escherichia coli, UniProt P0AFI2+P20083); test: Topoisomerase IV inhibition (decatenation kit), Exp. Ex. 2-3; format: biochemical; details: decatenation of kDNA, 37° C., 30 minutes; read-out: IC50 (E. coli topoisomerase IV inhibitions)
T2 construct: purchased John Innes Enterprises
Description: (§2) Staphylococcus aureus Topoisomerase IV and Escherichia coli Topoisomerase IV were purchased from John Innes Enterprises. 1 unit of topoisomerase IV was cultured with 200 ng of kinetoplast DNA (kDNA) in 30 L of a reaction solution at 37° C. for 30 minutes under the conditions of 50 mM Tris-HCl (pH 7.5) (S. aureus)/50 mM HEPES-KOH (pH 7.6) (E. coli), 5 mM MgCl2 (S. aureus)/5 mM magnesium acetate (E. coli), 350 mM potassium glutamate (S. aureus)/100 mM potassium glutamate (E. coli), 5 mM dithiotheri (S. aureus)/10 mM dithiotheri (E. coli), 1.5 mM ATP (S. aureus)/1 mM ATP (E. coli), and 40% (w/v) glycerol. The reactions were stopped by adding 8 L of a reaction stop solution (40% sucrose, 100 mM Tris.HCl (pH 7.5), 1 mM EDTA, 0.5 mg/ml bromophenol blue). Agarose gel (1.0%) was poured into TAE (40 mM Tris acetate, 2 mM EDTA).

[7] = target: T3, Staphylococcus aureus Topoisomerase IV (Staphylococcus aureus, UniProt P0C1S7+P0C1U9); test: as above; format: biochemical
T3 construct: purchased John Innes Enterprises
Description: as §2

[8] = system: Vancomycin intermediate-resistant Staphylococcus aureus Mu50; test: In vitro infectivity assay (MIC), Exp. Ex. 2-1; format: cell-based; details: Staphylococcus aureus, VISA; Gram-positive; microdilution, MIC after 24 h; read-out: MIC VISA Mu50
Description: (§3) The antibacterial activities were measured based on broth dilution techniques of international standards (Clinical Laboratory Standards Institute: CLSI). The activities were shown by minimum inhibitory concentrations (MICs) determined by inoculating the above-mentioned strains at a concentration of about 10^5 […] into Mueller-Hinton broth (manufactured by Difco) containing 0.85% NaCl in 96-well microplates and incubating the plates at 35° C. for 24 hours. Measurement was carried out three times.
(§4) The antibacterial activities of the compounds of the present invention against various strains such as vancomycin-resistant enterococci (VRE), vancomycin intermediate-resistant Staphylococcus aureus (VISA), methicillin-resistant Staphylococcus aureus (MRSA), and methicillin-sensitive Staphylococcus aureus (MSSA) were examined. Of the bacteria used in MIC measurement in this test example, clinical bacteria of MRSA (OM481 strain and OM584 strain) were supplied from Okayama University Hospital (Japan). An MRSA strain N315, a vancomycin intermediate-resistant Staphylococcus aureus (VISA) strain Mu50, and a methicillin-sensitive Staphylococcus aureus (MSSA) strain FDA 209P were used as controls. Vancomycin-resistant enterococcus (VRE) strains NCTC 12201 and FN-1 were supplied from the National Institute of Infectious Disease (Japan).

[9] = system: Vancomycin-resistant enterococci NCTC 12201; test: In vitro infectivity assay (MIC), Exp. Ex. 2-1; format: cell-based; details: Enterococcus, NCTC 12201 / VRE; Gram-positive; microdilution, MIC after 24 h; read-out: MIC VRE NCTC 12201
Description: as §3, §4

[10] = system: Vancomycin-resistant enterococci FN-1; test: In vitro infectivity assay (MIC), Exp. Ex. 2-1; format: cell-based; details: Enterococcus, VRE; Gram-positive; microdilution, MIC after 24 h; read-out: MIC VRE FN-1
Description: as §3, §4

Escherichia coli K-12 = test: Antibacterial activity (MIC) against Gram-negative strains, microdilution; format: cell-based; details: K12, MIC after 24 h, read-out: MIC (Gram-nagative) K-12
Procedure, shortened: (§5)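 CLSI broth microdilution in Mueller-Hinton broth with 0.85% NaCl, inoculum about 10^5 […]. Incubated 35° C for 24 hours; MIC taken as the minimum inhibitory concentration, measured three times.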

[11] = system: Pseodomonas aeruginosa PAOI; test: as above; format: cell-based; details: MIC after 24 h, read-out: MIC (Gram-nagative) PAO1
Procedure, shortened: as §5

[12] = system: Streptococcus pneumoniae R6; test: In vitro infectivity assay (MIC), Exp. Ex. 2-1; format: cell-based; details: Streptococcus pneumoniae, R6; Gram-positive; microdilution, MIC after 24 h; read-out: MIC S. Pneumoniae R6

T1 sequence (P0AES4 whole entry, one chain of several): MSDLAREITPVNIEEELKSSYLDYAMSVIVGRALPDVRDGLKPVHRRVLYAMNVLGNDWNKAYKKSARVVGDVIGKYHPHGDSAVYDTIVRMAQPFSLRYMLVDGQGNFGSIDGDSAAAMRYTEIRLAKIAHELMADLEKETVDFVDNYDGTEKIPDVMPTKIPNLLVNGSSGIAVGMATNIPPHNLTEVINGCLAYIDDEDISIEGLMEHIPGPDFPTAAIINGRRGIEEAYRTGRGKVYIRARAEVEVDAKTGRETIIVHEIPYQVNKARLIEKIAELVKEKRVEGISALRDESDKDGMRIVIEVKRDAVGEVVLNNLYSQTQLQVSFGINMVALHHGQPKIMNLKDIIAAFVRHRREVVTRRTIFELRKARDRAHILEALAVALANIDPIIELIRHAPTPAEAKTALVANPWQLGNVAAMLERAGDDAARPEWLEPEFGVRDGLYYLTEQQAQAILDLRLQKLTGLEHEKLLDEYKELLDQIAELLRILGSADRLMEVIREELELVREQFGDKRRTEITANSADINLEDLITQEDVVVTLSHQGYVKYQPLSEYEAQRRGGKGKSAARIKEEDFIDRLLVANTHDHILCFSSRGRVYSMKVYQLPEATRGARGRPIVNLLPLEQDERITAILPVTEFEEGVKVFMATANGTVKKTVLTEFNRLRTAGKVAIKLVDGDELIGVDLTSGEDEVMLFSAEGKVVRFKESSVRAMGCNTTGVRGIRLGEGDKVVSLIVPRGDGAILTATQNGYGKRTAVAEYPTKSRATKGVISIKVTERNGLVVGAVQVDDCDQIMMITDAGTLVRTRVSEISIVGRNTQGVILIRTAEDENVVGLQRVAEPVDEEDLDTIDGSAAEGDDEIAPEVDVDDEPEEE
T3 sequence (P0C1U9 whole entry): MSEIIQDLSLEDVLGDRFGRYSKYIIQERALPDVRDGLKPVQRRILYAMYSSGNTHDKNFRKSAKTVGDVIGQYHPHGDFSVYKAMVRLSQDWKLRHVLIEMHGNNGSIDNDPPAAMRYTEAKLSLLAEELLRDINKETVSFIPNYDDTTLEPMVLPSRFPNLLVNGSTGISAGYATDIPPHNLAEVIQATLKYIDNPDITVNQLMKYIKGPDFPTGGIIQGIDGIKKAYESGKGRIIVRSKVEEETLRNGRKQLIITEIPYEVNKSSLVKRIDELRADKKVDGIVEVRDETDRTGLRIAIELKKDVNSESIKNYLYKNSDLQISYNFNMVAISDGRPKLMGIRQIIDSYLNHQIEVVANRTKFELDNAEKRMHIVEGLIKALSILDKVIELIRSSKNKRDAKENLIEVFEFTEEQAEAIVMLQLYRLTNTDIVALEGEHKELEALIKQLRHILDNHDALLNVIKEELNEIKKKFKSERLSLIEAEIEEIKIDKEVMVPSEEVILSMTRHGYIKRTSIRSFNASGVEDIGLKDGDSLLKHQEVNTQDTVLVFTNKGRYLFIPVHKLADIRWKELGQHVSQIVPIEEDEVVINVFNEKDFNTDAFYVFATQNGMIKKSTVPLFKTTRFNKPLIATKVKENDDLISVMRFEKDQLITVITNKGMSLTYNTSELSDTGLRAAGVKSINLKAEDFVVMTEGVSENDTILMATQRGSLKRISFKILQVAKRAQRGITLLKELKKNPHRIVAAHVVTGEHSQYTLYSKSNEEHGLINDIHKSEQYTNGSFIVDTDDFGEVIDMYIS
T3 sequence (P0C1S7 whole entry): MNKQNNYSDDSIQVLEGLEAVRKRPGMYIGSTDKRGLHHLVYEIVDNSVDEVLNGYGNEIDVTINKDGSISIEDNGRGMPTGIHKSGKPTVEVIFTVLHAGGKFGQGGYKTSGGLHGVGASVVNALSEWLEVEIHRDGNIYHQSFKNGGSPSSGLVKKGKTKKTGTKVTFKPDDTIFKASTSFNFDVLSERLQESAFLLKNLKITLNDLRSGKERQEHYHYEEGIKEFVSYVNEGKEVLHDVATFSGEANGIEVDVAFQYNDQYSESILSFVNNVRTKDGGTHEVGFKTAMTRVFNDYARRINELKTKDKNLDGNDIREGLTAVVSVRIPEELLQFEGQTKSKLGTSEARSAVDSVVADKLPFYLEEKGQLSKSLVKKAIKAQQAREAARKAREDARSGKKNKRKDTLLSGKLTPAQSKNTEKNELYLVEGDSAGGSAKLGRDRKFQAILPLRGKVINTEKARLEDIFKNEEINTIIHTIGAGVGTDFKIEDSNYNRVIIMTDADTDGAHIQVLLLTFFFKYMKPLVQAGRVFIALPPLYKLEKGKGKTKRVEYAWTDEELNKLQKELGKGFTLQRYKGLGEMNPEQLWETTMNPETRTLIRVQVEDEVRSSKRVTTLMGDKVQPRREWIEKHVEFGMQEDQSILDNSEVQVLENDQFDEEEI
T2 sequence (P20083 whole entry): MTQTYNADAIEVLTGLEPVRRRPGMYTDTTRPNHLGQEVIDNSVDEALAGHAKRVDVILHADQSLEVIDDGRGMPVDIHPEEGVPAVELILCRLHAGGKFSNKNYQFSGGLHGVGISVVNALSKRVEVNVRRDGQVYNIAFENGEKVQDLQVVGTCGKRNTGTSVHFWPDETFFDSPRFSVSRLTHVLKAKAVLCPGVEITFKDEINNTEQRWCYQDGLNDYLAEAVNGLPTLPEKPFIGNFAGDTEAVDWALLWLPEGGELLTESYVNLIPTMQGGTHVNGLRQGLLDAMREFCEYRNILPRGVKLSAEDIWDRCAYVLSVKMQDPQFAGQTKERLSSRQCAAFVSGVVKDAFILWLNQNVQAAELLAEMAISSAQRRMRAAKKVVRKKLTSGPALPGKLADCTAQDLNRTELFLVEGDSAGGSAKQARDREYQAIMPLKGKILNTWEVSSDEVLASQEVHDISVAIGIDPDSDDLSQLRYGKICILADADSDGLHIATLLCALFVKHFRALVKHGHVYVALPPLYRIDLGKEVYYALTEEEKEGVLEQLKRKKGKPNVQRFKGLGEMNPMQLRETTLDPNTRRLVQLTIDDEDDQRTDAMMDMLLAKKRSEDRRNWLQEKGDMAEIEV
T2 sequence (P0AFI2 whole entry): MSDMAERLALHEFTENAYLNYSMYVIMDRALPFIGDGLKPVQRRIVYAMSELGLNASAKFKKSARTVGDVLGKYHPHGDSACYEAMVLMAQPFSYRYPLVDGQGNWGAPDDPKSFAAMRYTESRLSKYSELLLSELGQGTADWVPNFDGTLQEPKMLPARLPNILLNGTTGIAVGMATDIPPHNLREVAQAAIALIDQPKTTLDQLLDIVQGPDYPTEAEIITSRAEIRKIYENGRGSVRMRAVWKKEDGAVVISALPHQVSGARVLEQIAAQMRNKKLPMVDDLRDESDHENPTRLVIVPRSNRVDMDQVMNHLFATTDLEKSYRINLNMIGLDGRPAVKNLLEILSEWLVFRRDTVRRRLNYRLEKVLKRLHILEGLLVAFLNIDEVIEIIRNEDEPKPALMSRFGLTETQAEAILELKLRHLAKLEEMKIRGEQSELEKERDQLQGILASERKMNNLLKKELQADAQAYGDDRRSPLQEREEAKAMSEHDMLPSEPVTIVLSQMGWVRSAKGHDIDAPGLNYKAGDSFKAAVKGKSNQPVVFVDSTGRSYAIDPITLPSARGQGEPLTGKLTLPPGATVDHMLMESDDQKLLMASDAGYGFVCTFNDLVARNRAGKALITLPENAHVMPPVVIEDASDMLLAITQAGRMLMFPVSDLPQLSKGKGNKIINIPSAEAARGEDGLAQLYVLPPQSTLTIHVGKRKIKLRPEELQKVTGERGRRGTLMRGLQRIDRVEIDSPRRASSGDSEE

SMILES	MIC [1]	MIC [2]	MIC [3]	MIC [4]	MIC [5]	IC50 (E. coli DNA gyrase)	IC50 [6]	IC50 [7]	MIC [8]	MIC [9]	MIC [10]	MIC (Escherichia coli K-12)	MIC [11]	melting point	MIC [12]
Cc1ccc(CC(=O)OC[C@H]2O[C@@H](Oc3c(-c4ccc(O)c(O)c4)oc4cc(O)cc(O)c4c3=O)[C@H](OC(=O)Cc3ccc(C)cc3)[C@@H](O)[C@H]2O)cc1 [Compound 14d, 2-(3′,4′-Dihydroxyphenyl)-5,7-dihydroxy-3-β-D-[2″,6″-di-O-(4-methylphenylacetyl)]galactosyl-4H-chromen-4-one]	2 µg/mL (≈ 2.74 µM)	16 µg/mL (≈ 22 µM)	4 µg/mL (≈ 5.49 µM)	2 µg/mL (≈ 2.74 µM)	8 µg/mL (≈ 11 µM)	2.21 µM	8.52 µM	2.69 µM	4 µg/mL (≈ 5.49 µM)	4 µg/mL (≈ 5.49 µM)	8 µg/mL (≈ 11 µM)	> 128 µg/mL	> 128 µg/mL	125 to 127 °C	2 µg/mL (≈ 2.74 µM)
CCCc1ccc(C(=O)OC[C@H]2O[C@@H](Oc3c(-c4ccc(O)c(O)c4)oc4cc(O)cc(O)c4c3=O)[C@H](OC(=O)c3ccc(CCC)cc3)[C@@H](O)[C@H]2O)cc1 [Compound 14b]	4 µg/mL (≈ 5.29 µM)	16 µg/mL (≈ 21.1 µM)	2 µg/mL (≈ 2.64 µM)	4 µg/mL (≈ 5.29 µM)	2 µg/mL (≈ 2.64 µM)	0.77 µM	8.89 µM	1.93 µM	4 µg/mL (≈ 5.29 µM)	4 µg/mL (≈ 5.29 µM)	8 µg/mL (≈ 10.6 µM)	> 128 µg/mL	> 128 µg/mL	150 to 151 °C	2 µg/mL (≈ 2.64 µM)
